In patent EP2604265A1, “P2x7 antagonists as frontline or adjunctive treatment against status epilepticus” (Royal College of Surgeons in Ireland (RCSI), priority 2011, dated 2013):

How the values were obtained:
[1] = test system: P2Y receptors; conditions: selectivity of BBG; cited from earlier work
[2] = test system: IL-1β; test: Western blot of hippocampal IL-1β after SE; assay type: in vivo, mice; conditions: ipsilateral hippocampus, 24 h after KA
Protocol: Adult male C57BL/6 mice (20-25 g) were obtained from Harlan UK (Blackthorn, UK). Mice were first anesthetized using isoflurane (3-5%) and maintained normothermic by means of a feedback-controlled heat blanket (Harvard Apparatus Ltd, Kent, UK). Mice were next placed in a stereotaxic frame and three partial craniectomies performed to affix cortical skull-mounted EEG electrodes (Bilaney Consultants Ltd, Sevenoaks, UK). EEG was recorded using a Grass Comet XL digital EEG (Medivent Ltd, Lucan, Ireland). A guide cannula was affixed (coordinates from Bregma: AP = 0.94; L = 2.85 mm) and the assembly fixed in place with dental cement. Anesthesia was then discontinued and freely moving mice were placed inside a clear perspex recording chamber. […]
Western blotting was performed as previously described (Engel et al., 2010). […] Protein concentration was determined and then 20 or 50 µg samples boiled in gel-loading buffer and separated by 10, 12 or 15% sodium dodecyl sulphate-polyacrylamide gel electrophoresis. […] Gel band image densities were captured using a Fuji-film LAS-3000 and analyzed using Alpha-EaseFC4.0 software as described (Engel et al., 2010).

[3] = biological target: T1, P2X7R (Mus musculus, UniProt Q9Z1M0); test: Fura-2 calcium microfluorimetry, BzATP-evoked calcium entry; assay type: cell-based; conditions: cultured hippocampal neurons; BzATP 100 µM; BBG 1 µM
T1 construct: endogenous in cells; host or cells: primary hippocampal neurons from E17 mouse embryos
T1 sequence (Q9Z1M0 1-595): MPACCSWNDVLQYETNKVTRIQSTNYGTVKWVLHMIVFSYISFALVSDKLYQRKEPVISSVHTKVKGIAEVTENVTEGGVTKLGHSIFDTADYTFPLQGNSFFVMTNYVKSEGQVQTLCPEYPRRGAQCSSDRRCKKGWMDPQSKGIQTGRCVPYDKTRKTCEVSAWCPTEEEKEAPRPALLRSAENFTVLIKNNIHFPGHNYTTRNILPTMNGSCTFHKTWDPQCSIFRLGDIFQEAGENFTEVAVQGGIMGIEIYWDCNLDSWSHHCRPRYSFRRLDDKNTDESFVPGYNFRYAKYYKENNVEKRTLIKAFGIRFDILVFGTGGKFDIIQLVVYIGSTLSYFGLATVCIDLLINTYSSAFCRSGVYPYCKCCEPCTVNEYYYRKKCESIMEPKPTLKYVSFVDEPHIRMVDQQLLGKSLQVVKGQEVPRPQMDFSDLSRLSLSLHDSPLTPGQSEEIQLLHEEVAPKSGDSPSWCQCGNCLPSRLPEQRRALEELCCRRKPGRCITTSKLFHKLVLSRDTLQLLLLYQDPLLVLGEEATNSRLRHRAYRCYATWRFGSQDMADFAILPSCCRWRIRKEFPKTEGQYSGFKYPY
Protocol: Hippocampal neurons were prepared as described previously (Diaz-Hernandez et al., 2008). Briefly, hippocampi were obtained from E17 mouse embryos and, after dissection and washing three times in Ca^2+/Mg^2+-free HBSS, tissue was digested in the same solution with 0.25% trypsin for 15 min at 37°C. Hippocampi were then washed three times in Ca^2+/Mg^2+-free HBSS and dissociated with a firepolished Pasteur pipette. Cells were counted, resuspended in plating medium (MEM, 10% fetal bovine serum, 0.6% glucose) and plated at a density of 5,000 cells/cm^2 on poly-L-lysine coated coverslips (1 mg/ml). After plating, neurons were cultured for 24-72 h in neuronal culture medium (Neurobasal, B-27, glutamax-I). For biochemical experiments, hippocampal neurons were plated on polylysine-coated (1 mg/ml) 60-mm plates at a density of 200,000 cells/cm^2, and cultured for 72 h in neuronal culture medium. AraC was added at a final concentration of 5 µM after 2 days in culture.
Calcium microfluorimetric analysis in single neurons was carried out according to (Diaz-Hernandez et al., 2001). […]
Neurons were visualized using a Plan Fluor x40 S/0.5-1.3 oil lens. […] The background was subtracted at each wavelength and the 340 / 380 ratio was calculated. The data are represented as the normalized F340/F380 fluorescence ratio, which increases as [Ca^2+]i increases.

CCOc1ccc(Nc2ccc(C(=C3C=CC(=[N+](CC)Cc4cccc(S(=O)(=O)[O-])c4)C=C3C)c3ccc(N(CC)Cc4cccc(S(=O)(=O)O)c4)cc3C)cc2)cc1 [BBG, Brilliant Blue G]
inhibition of some P2Y receptors [1]: low micromolar range
IL-1β induction after SE [2]: significantly reduced
P2X7R-gated (BzATP-induced) calcium entry [3]: effective to block
